# Patent publication US20100223839A1, “SYSTEMS AND PROCESSES FOR PRODUCING BIO-FUELS FROM LIGNOCELLULOSIC MATERIALS” (WASHINGTON STATE UNIVERSITY, priority 2009, published 2010)
# System: Saccharomyces cerevisiae
# Experiment: Toxic effect of selected bio-oil model compounds on yeast growth (inhibition rate)
# Format: cell-based
# Set-up: inhibition rate: unit not given here
# Settings: for inhibition of yeast growth, summary in words: summary of Table 4
# Source text: The nature and the range of lethal concentrations of many of these toxic compounds was not well known. Thus, we carried out tests with model compounds to identify which of them were toxic to yeasts.
# The toxic effects of selected bio-oil compounds (acetic acid, propanoic acid, cyclopentanone, 2-furaldehyde, furfuryl alcohol, phenol, eugenol, acetol, 2-(5H)-furanone, stilbene, vanillin, syringaldehyde, o-cresol) on Saccharomyces cerevisiae were studied.
# [1] = compound at 25% of CFBO (concentration found in bio-oils; Mallee fast pyrolysis oil, 500° C.)
# [2] = compound at 50% of CFBO (concentration found in bio-oils; Mallee fast pyrolysis oil, 500° C.)
# [3] = compound at 75% of CFBO (concentration found in bio-oils; Mallee fast pyrolysis oil, 500° C.)
# [4] = compound at 100% of CFBO (concentration found in bio-oils; Mallee fast pyrolysis oil, 500° C.)
SMILES,"inhibition of yeast growth, summary in words",also measured
C=CCc1ccc(O)c(OC)c1 [Eugenol],most lethal compounds inhibiting yeast growth,–
CCCCCCCCCCCCCCC [Petadecane],also inhibitors but their inhibition rate is much lower,–
CCC(=O)O [Propanoic acid],most lethal compounds inhibiting yeast growth,–
COc1cc(C=O)ccc1O [Vanillin],most lethal compounds inhibiting yeast growth,–
CC(=O)CO [Acetol],–,inhibition rate [1]: 44.17; inhibition rate [2]: 77.80; inhibition rate [3]: 78.93; inhibition rate [4]: 80.07
CCCCCCCCCCCCCC [Tetradecane],also inhibitors but their inhibition rate is much lower,–
Oc1ccccc1 [Phenol],most lethal compounds inhibiting yeast growth,–
COc1cc(C=O)cc(OC)c1O [Syringaldehyde],most lethal compounds inhibiting yeast growth,–
CC(=O)O [Acetic acid],most lethal compounds inhibiting yeast growth,–
OCc1ccco1 [Furfuryl alcohol],also inhibitors but their inhibition rate is much lower,–
O=Cc1ccco1 [2-furaldehyde],also inhibitors but their inhibition rate is much lower,–
Cc1ccccc1O [O-cresol],–,inhibition rate [1]: 2.61; inhibition rate [2]: 14.16; inhibition rate [3]: 23.38; inhibition rate [4]: 31.22
O=C1C=CCO1 [2-(5H)-Furanone],also inhibitors but their inhibition rate is much lower,–
Oc1ccccc1O [Pyrocatechol],most lethal compounds inhibiting yeast growth,–
Cc1ccccc1C [O-xylol],–,inhibition rate [1]: 5.01; inhibition rate [2]: 5.23; inhibition rate [3]: 5.33; inhibition rate [4]: 5.44
